Experimental data taken from PubChem BioAssay (NCI).
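Five compound concentrations were applied to cells in 96-well plates for 48 hours; endpoints were derived by simple linear interpolation of the resulting dose-response curve. TGI is the concentration that stops growth completely.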

Tests used:
Assay in all cases: growth of human tumour cells (NCI), 48 h
NCI-H23 lung = tested on: NCI-H23 lung
COLO 205 colon = tested on: COLO 205 colon
HOP-62 NSCLC = tested on: HOP-62 NSCLC
MALME-3M melanoma = tested on: MALME-3M melanoma
NCI-H226 lung = tested on: NCI-H226 lung
HS 578T breast = tested on: HS 578T breast
K-562 leukemia = tested on: K-562 leukemia
SN12C renal = tested on: SN12C renal
T-47D breast = tested on: T-47D breast
U251 CNS = tested on: U251 CNS
UACC-62 melanoma = tested on: UACC-62 melanoma
M14 melanoma = tested on: M14 melanoma
HCC-2998 colon = tested on: HCC-2998 colon
MDA-N = tested on: MDA-N
RPMI-8226 leukemia = tested on: RPMI-8226 leukemia
SF-268 CNS = tested on: SF-268 CNS
A549 NSCLC = tested on: A549 NSCLC
NCI-H522 lung = tested on: NCI-H522 lung
SW-620 colon = tested on: SW-620 colon
BT-549 breast = tested on: BT-549 breast
PC-3 prostate = tested on: PC-3 prostate
OVCAR-8 ovarian = tested on: OVCAR-8 ovarian
SK-MEL-2 melanoma = tested on: SK-MEL-2 melanoma
CAKI-1 renal = tested on: CAKI-1 renal
SNB-75 CNS = tested on: SNB-75 CNS
SK-MEL-28 melanoma = tested on: SK-MEL-28 melanoma
HCT-116 colon = tested on: HCT-116 colon
A498 renal = tested on: A498 renal
MDA-MB-231 breast = tested on: MDA-MB-231 breast
IGROV1 ovarian = tested on: IGROV1 ovarian
HT29 colon = tested on: HT29 colon
NCI-H460 lung = tested on: NCI-H460 lung
UO-31 renal = tested on: UO-31 renal
HCT-15 colon = tested on: HCT-15 colon
SK-MEL-5 melanoma = tested on: SK-MEL-5 melanoma
786-0 renal = tested on: 786-0 renal
EKVX NSCLC = tested on: EKVX NSCLC
MCF7 breast = tested on: MCF7 breast
OVCAR-5 ovarian = tested on: OVCAR-5 ovarian
LOX IMVI melanoma = tested on: LOX IMVI melanoma
SK-OV-3 ovarian = tested on: SK-OV-3 ovarian
TK-10 renal = tested on: TK-10 renal
UACC-257 melanoma = tested on: UACC-257 melanoma
DU-145 prostate = tested on: DU-145 prostate
SNB-19 CNS = tested on: SNB-19 CNS
NCI/ADR-RES ovarian = tested on: NCI/ADR-RES ovarian
OVCAR-4 ovarian = tested on: OVCAR-4 ovarian
HOP-92 NSCLC = tested on: HOP-92 NSCLC
OVCAR-3 ovarian = tested on: OVCAR-3 ovarian
KM12 colon = tested on: KM12 colon
MDA-MB-435 = tested on: MDA-MB-435
ACHN renal = tested on: ACHN renal
RXF 393 renal = tested on: RXF 393 renal
SF-295 CNS = tested on: SF-295 CNS
SF-539 CNS = tested on: SF-539 CNS

Clc1ccc(CSc2ncnc3c2ncn3C2CCCCO2)cc1 (stereo not drawn)
TGI (NCI-H23 lung): 64.8 µM
TGI (COLO 205 colon): 56.9 µM
TGI (HOP-62 NSCLC): 45.7 µM
TGI (MALME-3M melanoma): 38.4 µM
TGI (NCI-H226 lung): 76.7 µM
TGI (HS 578T breast): 76.4 µM
TGI (K-562 leukemia): 66.1 µM
TGI (SN12C renal): 38.7 µM
TGI (T-47D breast): 57.8 µM
TGI (U251 CNS): 44.9 µM
TGI (UACC-62 melanoma): 30 µM
TGI (M14 melanoma): 31 µM
TGI (HCC-2998 colon): 38.1 µM
TGI (MDA-N): 43.8 µM
TGI (RPMI-8226 leukemia): 39.4 µM
TGI (SF-268 CNS): 77.4 µM
TGI (A549 NSCLC): > 100 µM
TGI (NCI-H522 lung): 33.7 µM
TGI (SW-620 colon): > 100 µM
TGI (BT-549 breast): 68.2 µM
TGI (PC-3 prostate): 74.7 µM
TGI (OVCAR-8 ovarian): 71.5 µM
TGI (SK-MEL-2 melanoma): 32 µM
TGI (CAKI-1 renal): > 100 µM
TGI (SNB-75 CNS): 58.1 µM
TGI (SK-MEL-28 melanoma): 48.8 µM
TGI (HCT-116 colon): 53.9 µM
TGI (A498 renal): 31.9 µM
TGI (MDA-MB-231 breast): 86.3 µM
TGI (IGROV1 ovarian): > 100 µM
TGI (HT29 colon): 35.5 µM
TGI (NCI-H460 lung): 36.7 µM
TGI (UO-31 renal): 4.36 µM
TGI (HCT-15 colon): > 100 µM
TGI (SK-MEL-5 melanoma): 22.9 µM
TGI (786-0 renal): 56.2 µM
TGI (EKVX NSCLC): 50.1 µM
TGI (MCF7 breast): 83.7 µM
TGI (OVCAR-5 ovarian): > 100 µM
TGI (LOX IMVI melanoma): 36.3 µM
TGI (SK-OV-3 ovarian): 55.6 µM
TGI (TK-10 renal): 60.4 µM
TGI (UACC-257 melanoma): 24.9 µM
TGI (DU-145 prostate): > 100 µM
TGI (SNB-19 CNS): > 100 µM
TGI (NCI/ADR-RES ovarian): 63.2 µM
TGI (OVCAR-4 ovarian): > 100 µM
TGI (HOP-92 NSCLC): 89.2 µM
TGI (OVCAR-3 ovarian): 32.5 µM
TGI (KM12 colon): 46.9 µM
TGI (MDA-MB-435): 38.1 µM
TGI (ACHN renal): 29.8 µM
TGI (RXF 393 renal): 80.2 µM
TGI (SF-295 CNS): 36.7 µM

C/C(=N\NC1=NCCN1)c1cn(C2=NCCN2)nc1C
TGI (NCI-H23 lung): > 100 µM
TGI (COLO 205 colon): > 100 µM
TGI (HOP-62 NSCLC): > 100 µM
TGI (MALME-3M melanoma): > 100 µM
TGI (NCI-H226 lung): > 100 µM
TGI (HS 578T breast): > 100 µM
TGI (K-562 leukemia): > 100 µM
TGI (SN12C renal): > 100 µM
TGI (T-47D breast): > 100 µM
TGI (U251 CNS): > 100 µM
TGI (UACC-62 melanoma): > 100 µM
TGI (M14 melanoma): > 100 µM
TGI (HCC-2998 colon): > 100 µM
TGI (MDA-N): > 100 µM
TGI (RPMI-8226 leukemia): > 100 µM
TGI (SF-268 CNS): > 100 µM
TGI (A549 NSCLC): > 100 µM
TGI (NCI-H522 lung): > 100 µM
TGI (SW-620 colon): > 100 µM
TGI (BT-549 breast): > 100 µM
TGI (PC-3 prostate): > 100 µM
TGI (OVCAR-8 ovarian): > 100 µM
TGI (SK-MEL-2 melanoma): > 100 µM
TGI (CAKI-1 renal): > 100 µM
TGI (SNB-75 CNS): > 100 µM
TGI (SK-MEL-28 melanoma): > 100 µM
TGI (HCT-116 colon): > 100 µM
TGI (A498 renal): > 100 µM
TGI (MDA-MB-231 breast): > 100 µM
TGI (IGROV1 ovarian): > 100 µM
TGI (HT29 colon): > 100 µM
TGI (NCI-H460 lung): > 100 µM
TGI (UO-31 renal): > 100 µM
TGI (HCT-15 colon): > 100 µM
TGI (SK-MEL-5 melanoma): > 100 µM
TGI (786-0 renal): > 100 µM
TGI (EKVX NSCLC): > 100 µM
TGI (MCF7 breast): > 100 µM
TGI (OVCAR-5 ovarian): > 100 µM
TGI (SF-539 CNS): > 100 µM
TGI (SK-OV-3 ovarian): > 100 µM
TGI (TK-10 renal): > 100 µM
TGI (UACC-257 melanoma): > 100 µM
TGI (DU-145 prostate): > 100 µM
TGI (SNB-19 CNS): > 100 µM
TGI (NCI/ADR-RES ovarian): > 100 µM
TGI (OVCAR-4 ovarian): > 100 µM
TGI (HOP-92 NSCLC): > 100 µM
TGI (OVCAR-3 ovarian): > 100 µM
TGI (KM12 colon): > 100 µM
TGI (MDA-MB-435): > 100 µM
TGI (ACHN renal): > 100 µM
TGI (RXF 393 renal): > 100 µM
TGI (SF-295 CNS): > 100 µM
